# System: healthy, nondependent, recreational stimulant users with intranasal insufflation experience
# Test: Intranasal study, treatment-emergent adverse events (Table 54)
# Experimental: The study consisted of a Screening Period, an in-clinic Drug Discrimination Phase, a Treatment Phase, and a Follow-Up Visit.
# All subjects were required to fast for at least 8 hours prior to each dose of study drug until approximately 4 hours after each dose. Abuse potential measures and pharmacokinetic samples were collected at different times after the administration of study drug. Subjects who successfully completed the Drug Discrimination Phase and who qualified for the Treatment Phase remained as inpatients to enter the Treatment Phase.
# [1] = intranasal, d-MPH HCl 40 mg, SDX Cl 80 mg, N = 46 each
structure (smiles),measurement,setting,value
COC(=O)[C@H](c1ccccc1)[C@H]1CCCCN1C(=O)OC[n+]1cccc(C(=O)N[C@@H](CO)C(=O)O)c1.[Cl-] [serdexmethylphenidate chloride],"respiratory, thoracic, and eye disorders (nasal discomfort, nasal congestion, rhinorrhoea, epistaxis, increased lacrimation)",intranasal SDX Cl compared to intranasal d-MPH HCl,occurred more often
same,"Abdominal distension, number of occurrences",[1],1 E
same,"Abdominal distension, subjects with event",[1],1 (2.2%) n (%)
same,"Abdominal pain, number of occurrences",[1],2 E
same,"Abdominal pain, subjects with event",[1],2 (4.3%) n (%)
same,"Agitation, number of occurrences",[1],1 E
same,"Agitation, subjects with event",[1],1 (2.2%) n (%)
same,"Anxiety, number of occurrences",[1],1 E
same,"Anxiety, subjects with event",[1],1 (2.2%) n (%)
same,"Any TEAE, number of occurrences",[1],102 E
same,"Any TEAE, subjects with event",[1],36 (78.3%) n (%)
same,"Arthralgia, number of occurrences",[1],1 E
same,"Arthralgia, subjects with event",[1],1 (2.2%) n (%)
same,"Asthenia, number of occurrences",[1],1 E
same,"Asthenia, subjects with event",[1],1 (2.2%) n (%)
same,"Back pain, subjects with event",[1],0 n (%)
same,"Blood pressure diastolic increased, subjects with event",[1],0 n (%)
same,"Bruxism, subjects with event",[1],0 n (%)
same,"Cardiac disorders, number of occurrences",[1],2 E
same,"Cardiac disorders, subjects with event",[1],2 (4.3%) n (%)
same,"Catheter site haematoma, number of occurrences",[1],1 E
same,"Catheter site haematoma, subjects with event",[1],1 (2.2%) n (%)
same,"Catheter site swelling, number of occurrences",[1],1 E
same,"Catheter site swelling, subjects with event",[1],1 (2.2%) n (%)
same,"Change in sustained attention, subjects with event",[1],0 n (%)
same,"Chest discomfort, subjects with event",[1],0 n (%)
same,"Chest pain, number of occurrences",[1],1 E
same,"Chest pain, subjects with event",[1],1 (2.2%) n (%)
same,"Claustrophobia, number of occurrences",[1],1 E
same,"Claustrophobia, subjects with event",[1],1 (2.2%) n (%)
same,"Cough, number of occurrences",[1],3 E
same,"Cough, subjects with event",[1],3 (6.5%) n (%)
same,"Decreased appetite, subjects with event",[1],0 n (%)
same,"Defaecation urgency, subjects with event",[1],0 n (%)
same,"Diarrhoea, number of occurrences",[1],1 E
same,"Diarrhoea, subjects with event",[1],1 (2.2%) n (%)
same,"Disturbance in attention, number of occurrences",[1],1 E
same,"Disturbance in attention, subjects with event",[1],1 (2.2%) n (%)
same,"Dizziness, number of occurrences",[1],1 E
same,"Dizziness, subjects with event",[1],1 (2.2%) n (%)
same,"Dry mouth, subjects with event",[1],0 n (%)
same,"Dry throat, subjects with event",[1],0 n (%)
same,"Dysgeusia, number of occurrences",[1],2 E
same,"Dysgeusia, subjects with event",[1],2 (4.3%) n (%)
same,"Dysmenorrhoea (menstrual cramps), subjects with event",[1],0 n (%)
same,"Dyspepsia, subjects with event",[1],0 n (%)
same,"Ecchymosis (skin discoloration), number of occurrences",[1],1 E
same,"Ecchymosis (skin discoloration), subjects with event",[1],1 (2.2%) n (%)
same,"Energy increased, subjects with event",[1],0 n (%)
same,"Epistaxis (nosebleed), number of occurrences",[1],3 E
same,"Epistaxis (nosebleed), subjects with event",[1],3 (6.5%) n (%)
same,"Euphoric mood, number of occurrences",[1],9 E
same,"Euphoric mood, subjects with event",[1],9 (19.6%) n (%)
same,"Eye disorders, number of occurrences",[1],9 E
same,"Eye disorders, subjects with event",[1],8 (17.4%) n (%)
same,"Eye irritation, subjects with event",[1],0 n (%)
same,"Eye pain, number of occurrences",[1],1 E
same,"Eye pain, subjects with event",[1],1 (2.2%) n (%)
same,"Fatigue, number of occurrences",[1],1 E
same,"Fatigue, subjects with event",[1],1 (2.2%) n (%)
same,"Feeling hot, subjects with event",[1],0 n (%)
same,"Feeling of relaxation, number of occurrences",[1],2 E
same,"Feeling of relaxation, subjects with event",[1],2 (4.3%) n (%)
same,"Flushing, subjects with event",[1],0 n (%)
same,"Gastrointestinal disorders, number of occurrences",[1],6 E
same,"Gastrointestinal disorders, subjects with event",[1],4 (8.7%) n (%)
same,"General disorders and administration site conditions, number of occurrences",[1],7 E
same,"General disorders and administration site conditions, subjects with event",[1],6 (13.0%) n (%)
same,"Haematoma, subjects with event",[1],0 n (%)
same,"Head discomfort, number of occurrences",[1],1 E
same,"Head discomfort, subjects with event",[1],1 (2.2%) n (%)
same,"Headache, number of occurrences",[1],6 E
same,"Headache, subjects with event",[1],5 (10.9%) n (%)
same,"Hyperhidrosis, number of occurrences",[1],2 E
same,"Hyperhidrosis, subjects with event",[1],2 (4.3%) n (%)
same,"Hypervigilance, number of occurrences",[1],6 E
same,"Hypervigilance, subjects with event",[1],6 (13.0%) n (%)
same,"Hypopnoea (shallow breathing), subjects with event",[1],0 n (%)
same,"Infections and infestations, subjects with event",[1],0 n (%)
same,"Investigations, subjects with event",[1],0 n (%)
same,"Irritability, number of occurrences",[1],1 E
same,"Irritability, subjects with event",[1],1 (2.2%) n (%)
same,"Lacrimation increased, number of occurrences",[1],8 E
same,"Lacrimation increased, subjects with event",[1],8 (17.4%) n (%)
same,"Metabolism and nutrition disorders, subjects with event",[1],0 n (%)
same,"Muscle tightness, subjects with event",[1],0 n (%)
same,"Muscle twitching, subjects with event",[1],0 n (%)
same,"Musculoskeletal and connective tissue disorders, number of occurrences",[1],1 E
same,"Musculoskeletal and connective tissue disorders, subjects with event",[1],1 (2.2%) n (%)
same,"Nasal congestion, number of occurrences",[1],10 E
same,"Nasal congestion, subjects with event",[1],10 (21.7%) n (%)
same,"Nasal discomfort, number of occurrences",[1],14 E
same,"Nasal discomfort, subjects with event",[1],13 (28.3%) n (%)
same,"Nasal dryness, number of occurrences",[1],1 E
same,"Nasal dryness, subjects with event",[1],1 (2.2%) n (%)
same,"Nausea, number of occurrences",[1],2 E
same,"Nausea, subjects with event",[1],2 (4.3%) n (%)
same,"Neck pain, subjects with event",[1],0 n (%)
same,"Nervous system disorders, number of occurrences",[1],12 E
same,"Nervous system disorders, subjects with event",[1],11 (23.9%) n (%)
same,"Obsessive-compulsive disorder, subjects with event",[1],0 n (%)
same,"Palpitations, number of occurrences",[1],2 E
same,"Palpitations, subjects with event",[1],2 (4.3%) n (%)
same,"Peripheral swelling, subjects with event",[1],0 n (%)
same,"Pharyngeal hypoaesthesia (numbness of throat), subjects with event",[1],0 n (%)
same,"Pharyngitis, subjects with event",[1],0 n (%)
same,"Phlebitis superficial, subjects with event",[1],0 n (%)
same,"Phonophobia (fear of loud noises), subjects with event",[1],0 n (%)
same,"Photophobia, subjects with event",[1],0 n (%)
same,"Psychiatric disorders, number of occurrences",[1],19 E
same,"Psychiatric disorders, subjects with event",[1],13 (28.3%) n (%)
same,"Pyrexia, subjects with event",[1],0 n (%)
same,"Reproductive system and breast disorders, subjects with event",[1],0 n (%)
same,"Respiratory, thoracic and mediastinal disorders, number of occurrences",[1],42 E
same,"Respiratory, thoracic and mediastinal disorders, subjects with event",[1],25 (54.3%) n (%)
same,"Restlessness, subjects with event",[1],0 n (%)
same,"Rhinorrhoea (runny nose), number of occurrences",[1],4 E
same,"Rhinorrhoea (runny nose), subjects with event",[1],4 (8.7%) n (%)
same,"Sinus tachycardia, subjects with event",[1],0 n (%)
same,"Skin and subcutaneous tissue disorders, number of occurrences",[1],4 E
same,"Skin and subcutaneous tissue disorders, subjects with event",[1],4 (8.7%) n (%)
same,"Skin erosion, number of occurrences",[1],1 E
same,"Skin erosion, subjects with event",[1],1 (2.2%) n (%)
same,"Sneezing, number of occurrences",[1],1 E
same,"Sneezing, subjects with event",[1],1 (2.2%) n (%)
same,"Somnolence, number of occurrences",[1],1 E
same,"Somnolence, subjects with event",[1],1 (2.2%) n (%)
same,"Tachycardia, subjects with event",[1],0 n (%)
same,"Testis discomfort, subjects with event",[1],0 n (%)
same,"Throat irritation, number of occurrences",[1],4 E
same,"Throat irritation, subjects with event",[1],3 (6.5%) n (%)
same,"Upper-airway cough syndrome, number of occurrences",[1],2 E
same,"Upper-airway cough syndrome, subjects with event",[1],2 (4.3%) n (%)
same,"Vascular disorders, subjects with event",[1],0 n (%)
same,"Ventricular extrasystoles, subjects with event",[1],0 n (%)
same,"Vessel puncture site bruise, subjects with event",[1],0 n (%)
same,"Vessel puncture site pain, subjects with event",[1],0 n (%)
same,"Visual impairment, subjects with event",[1],0 n (%)
same,"Vomiting, subjects with event",[1],0 n (%)
